Measured values published in patent publication US20060058394A1, “Medicine of post-traumatic stress disorder” (KYOTO UNIVERSITY, priority 2001, published 2006).

What was measured:
wild mice = test: Social behaviors on cohabiting with young male mice (smelling action); type: in vivo; conditions: wild mice cohabiting with young male mice (5 weeks of age)
Excerpt: (§1) The action admitted when wild mice (WT) or EP1 receptor-deficient mice cohabit with young male mice (5 weeks of ages) was observed.

WT mice = test: Action of jumping off platform; type: in vivo; conditions: 10 mg/kg i.p., about 20 cm high platform, 7 minutes, FIG. 5
Protocol: Wild mice, EP1 or EP3 receptor-deficient mice, or WT mice to which 10 mg/kg of EP1 antagonist (the same as experiment example 1 was used.) was intraperitoneally administered put on about 20 cm high platform (beaker), and the presence of the action of jumping off was observed.

C57BL/6 mice = test: Decrease of spontaneous locomotor activity by LPS induction; type: in vivo; conditions: wild mice; LPS 0.1 mg/kg i.p.; 0.1% (W/W) EP1 antagonist mixed with food; 12 hours, 8 p.m. to 8 a.m.; FIG. 4
Protocol: 0.1 mg/kg of LPS is intraperitoneally administered to C57BL/6 mice, they are put in acrylic cage (30×45×35 cm (height), and the momentum for 12 hours from the 8 p.m. to 8 a.m. of next morning was measured with mouse action meter, Infrared photo beam counter (Neuroscience Co., Ltd., Tokyo, Japan). 0.1% (W/W) of EP1 antagonist (the same as experiment example 1 was used) mixed with food was given. Similarly, the difference of the momentum by administering LPS were compared by using wild mice (WT) and EP1 receptor-deficient mice.

ACTH in plasma = test: ACTH production by LPS induction; type: in vivo, C57BL/6 strain mice; conditions: wild type mice; LPS 0.1 mg/kg i.p.; blood 60 minutes after LPS; EP1 antagonist given 1 hour before LPS; FIG. 2
Protocol: 0.1 mg/kg of LPS (lipopolysaccharide) as an infectious stress was intraperitoneally administered to C57BL/6 strain mice. The blood be gathered at 60 minutes later after administering LPS, the induced stress reaction, that is, activation of hypothalamus-pituitary-adrenal system were measured as a marker on ACTH in plasma. ACTH was measured with ACTH IRMA kit (Mitsubishi Yuka Medical Co., Tokyo, Japan). (4-[2-(N-isobutyl-2-furanylsulfonylamino)-5-trifluoromethylphenoxymethyl]cinna mic acid (the compound which had been described to example 18(94) in WO98/27053, was used.), which is EP1 antagonist, was administered 1 hour ago before administering LPS.

[1] = test system: EP1 receptor-deficient mice; test: Aggressive behavior after administering haloperidol; type: in vivo; conditions: EP1 receptor-deficient mice given haloperidol
Protocol: After two male mice (wild mice (WT) or EP1 receptor-deficient mice) were put in 3 L of glass container and stimulated by the electroshock (1 H, 200 m seconds, 0.3 mA for 3 minutes), these aggressive behaviors were recorded to the video. The time up to the first aggressive behavior (latency; second) and the attack frequency, and total attack time was compared.
as §1
As a result of experiment similar to experiment example 6 by administering haloperidol to EP1 receptor-deficient mice, it was confirmed that the time up to the first attack elongates, the attack frequency decreases, and the total of attack time shortens.

[2] = test system: EP1 receptor-deficient mice; test: Spontaneous locomotor activity after administering haloperidol; type: in vivo; conditions: EP1 receptor-deficient mice given haloperidol
Protocol: Furthermore, it was also confirmed that the spontaneous locomotor activity decreased when haloperidol was administered to EP1 receptor-deficient mice.

SMILES	time of the smelling action (wild mice)	mice jumped off the platform (WT mice)	decrease of the spontaneous locomotor activity induced by LPS (C57BL/6 mice)	amount of ACTH production by LPS-induction (ACTH in plasma)	attack frequency [1]	time up to the first attack [1]	total of attack time [1]	spontaneous locomotor activity [2]
CC(C)CN(c1ccc(C(F)(F)F)cc1OCc1ccc(C=CC(=O)O)cc1)S(=O)(=O)c1ccco1 [EP1 antagonist, 4-[2-(N-isobutyl-2-furanylsulfonylamino)-5-trifluoromethylphenoxymethyl]cinna mic acid]	shortened	All mice in the EP1 antagonist administrated group jumped off the platform 7 minutes later	has decreased	significantly decreases	–	–	–	–
O=C(CCCN1CCC(O)(c2ccc(Cl)cc2)CC1)c1ccc(F)cc1 [haloperidol]	–	–	–	–	decreases	elongates	shortens	decreased
